Assay results taken from patent publication EP0480258A2, “Use of substituted 2-mercapto-nicotinic acid derivatives for combat against endoparasites, novel substituted 2-mercaptonicotinir acid derivatives and processes for their preparation” (BAYER AG, priority 1990, dated 1992).

Key:
[1] = tested on: Trichostrongylus colubriformis; assay: In vivo nematode test, Trichostrongylus colubriformis / sheep; conditions: experimentally infected sheep (Schaf), treated after the prepatent period, pure active compound in gelatin capsules, oral, dose giving complete cessation of egg excretion in faeces, read-out: Dosis effectiva
Excerpt: Trichostrongylus colubriformis / Schaf
Experimentell mit Trichostrongylus colubriformis infizierte Schafe wurden nach Ablauf der Präpatenzzeit des Parasiten behandelt. Die Wirkstoffe wurden als reiner Wirkstoff in Gelatinekapseln oral appliziert.
Der Wirkungsgrad wird dadurch bestimmt, daß man die mit dem Kot ausgeschiedenen Wurmeier vor und nach der Behandlung quantitativ auszählt.
Ein völliges Sistieren der Eiausscheidung nach der Behandlung bedeutet, daß die Würmer abgetrieben wurden oder so geschädigt sind, daß sie keine Eier mehr produzieren (Dosis effectiva).
Geprüfte Wirkstoffe und wirksame Dosierungen (Dosis effectiva) sind aus der nachfolgenden Tabelle ersichtlich.

[2] = tested on: Haemonchus contortus; assay: In vivo nematode test, Haemonchus contortus / sheep; conditions: experimentally infected sheep (Schaf), treated after the prepatent period, pure active compound in gelatin capsules, oral, dose giving complete cessation of egg excretion in faeces, read-out: Dosis effectiva
Excerpt: Haemonchus contortus / Schaf
Experimentell mit Haemonchus contortus infizierte Schafe wurden nach Ablauf der Präpatenzzeit des Parasiten behandelt. Die Wirkstoffe wurden als reiner Wirkstoff in Gelatinekapseln oral appliziert.
Der Wirkungsgrad wird dadurch bestimmt, daß man die mit dem Kot ausgeschiedenen […] vor und nach der Behandlung quantitativ auszählt.
Ein völliges Sistieren der Eiausscheidung nach der Behandlung bedeutet, daß die Würmer abgetrieben wurden oder so geschädigt sind, daß sie keine Eier mehr produzeiren (Dosis effectiva).
Geprüfte Wirkstoffe und wirksame Dosierungen (Dosis effectiva) sind aus der nachfolgenden Tabelle ersichtlich: […]

SMILES | minimal effective dose [1] [mg/kg] | minimal effective dose [2] [mg/kg]
CCSc1ncccc1C(=O)Nc1ccc(Cl)cc1 [Beispiel 13] | 10 | 
CCCSc1ncccc1C(=O)Nc1ccccc1Cl [Beispiel 6] |  | 5
C=CCSc1ncccc1C(=O)Nc1ccccc1 [Beispiel 3] | 10 | 
CSc1ncccc1C(=O)Nc1ccccc1 [Beispiel 1] |  | 10
CCCSc1ncccc1C(=O)Nc1ccccc1 [Beispiel 2] | 10 | 10
CCCSc1ncccc1C(=O)Nc1ccc(Cl)cc1 [Beispiel 9] |  | 10
CSc1ncccc1C(=O)Nc1ccc(Cl)cc1 [Beispiel 7] | 5 | 10
CCCSc1ncccc1C(=O)Nc1ccc(SC(F)(F)F)cc1 [Beispiel 29] | 10 | 10
CSc1ncccc1C(=O)Nc1ccc(Sc2ccc(Cl)cc2)cc1C(F)(F)F [Beispiel 87] | 10 | 
CCSc1ncccc1C(=O)Nc1ccccc1 [Beispiel 24] |  | 10
